Results as given in US20230372301A1, “TREATMENTS WITH NIROGACESTAT” (SpringWorks Therapeutics, Inc., priority 2022, published 2023).

Key:
[1] = test system: progressing desmoid tumors; settings: Phase 2, participants with progressing desmoid tumors; cited from earlier work
[2] = test system: progressing desmoid tumors/aggressive fibromatosis (DT/AF); assay type: in vivo
Excerpt: A Phase 3, double-blind, placebo-controlled study is being conducted to determine the efficacy and safety of nirogacestat dihydrobromide in participants with progressing desmoid tumors. A Phase 1 solid tumor study provided preliminary efficacy (Messersmith, W., et al., “A Phase I, dose-finding study in patients with advanced solid malignancies of the oral y-secretase inhibitor PF-03084014,” Clin. Cancer Res., 21:60-7 (2015)), including long-term durable responses and safety of nirogacestat in desmoid participants (Villalobos, V. M., et al., “Long-Term Follow-Up of Desmoid Fibromatosis Treated with PF-03084014, an Oral Gamma Secretase Inhibitor, Ann. Surg. Oncol., 25:768-75 (2018)). These encouraging results lead to a Phase 2 study in participants with progressing desmoid tumors (Kummar, S., et al., “Clinical Activity of the γ-Secretase Inhibitor PF-03084014 in Adults with Desmoid Tumors (Aggressive Fibromatosis), J. Clin. Oncol., 35:1561-69 (2017)). […] Importantly, participants in the responder group had failed previous systemic therapies (imatinib or sorafenib) indicating a need for alterative therapeutic options for this patient population.
Overall Design: The Phase 3 study will be a multi-center, randomized, double-blind, placebo-controlled, event-driven to compare the efficacy, safety, and tolerability of nirogacestat and placebo in adult participants with progressing DT/AF. This study will consist of 2 phases, a double-blind and an optional open-label extension (OLE) phase.
Following disease progression (confirmed by central review using RECIST v1.1), or completion of the double-blind phase (once the required number of events have been observed and the primary PFS analysis has been completed), participants' treatment assignment will be unblinded, and if eligible, participants will have the option to enroll in the optional OLE phase.
Type of Participant and Disease Characteristics: • 1. Participant has DT/AF that has progressed by ≥20% as measured by RECIST v1.1 within the 12-month period prior to first dose of study treatment. • 2. Participant has: • a. Newly diagnosed, measurable progressing DT/AF that is not amenable to surgical resection or radiation therapy; • OR • b. Recurrent, progressing DT/AF following CR to initial therapy; • OR • c. Preexisting DT/AF and has previously received therapy and the residual tumor has progressed. • 3. Participant agrees to provide archival or new tumor tissue for confirmation of disease. • 4. If participant was previously treated with an investigational therapy for treatment of DT/AF, participant must have completed prior therapy at least 28 days prior to signing informed consent. All toxicities from prior therapy must resolve to Grade 1 or baseline. • 5. Participants who are receiving nonsteroidal anti-inflammatory drugs (NSAIDs) as treatment for conditions other than DT/AF must be receiving them prior to the observed progression (inclusion criteria 1) for: • a. Chronic scheduled daily use (defined as stable for 28 days prior to signing informed consent); or • b. Occasional use (defined as ≤3 days per week) for the treatment of pain or as an anti-inflammatory in licensed conditions such as headache, arthritis, etc. • c. Participant has an Eastern Cooperative Oncology Group (ECOG) performance status ≤2 at screening. • 6. Participant has adequate organ and bone marrow function as defined by the following Screening laboratory values: • a. Absolute neutrophil count ≥1500/μL; • b. Platelets ≥100×10^3/μL; • c. Hemoglobin ≥9 g/dL; • d. Total bilirubin ≤1.5×upper limit of normal (ULN) (isolated bilirubin >1.5×ULN is acceptable if bilirubin is fractionated and direct bilirubin <35%); • e. Aspartate aminotransferase (AST) (serum glutamic oxaloacetic transaminase)/alanine aminotransferase (ALT) (serum glutamic pyruvate transaminase)≤2×ULN; and • f. […] Participant can swallow tablets and has no gastrointestinal conditions affecting absorption. […]

[3] = 150 mg twice daily, positive change indicates improvement
[4] = change from Baseline in EORTC, P: <0.001

## CCC[C@H](N[C@H]1CCc2cc(F)cc(F)c2C1)C(=O)Nc1cn(C(C)(C)CNCC(C)(C)C)cn1 (single isomer, unassigned) [nirogacestat]
[1]
  participants progressing while on therapy: no participants progressing while on therapy
  response rate: 29%
  tumor shrinkage as measured by magnetic resonance imaging (MRI): significant tumor shrinkage
[2]; [3]
  mean change from Baseline in EORTC, Global health status/Quality of life (GHS/QoL): 4.493
  mean change from Baseline in EORTC, QLQ30 Role Functioning: 11.133
  mean change from Baseline in EORTC, QLQC30 Physical Functioning: 8.523
[2]; change from Baseline in EORTC, P: 0.007
  LS mean difference (between nirogacestat and placebo), Global health status/Quality of life (GHS/QoL): 10.515
[2]; [4]
  LS mean difference (between nirogacestat and placebo), QLQ30 Role Functioning: 16.714
  LS mean difference (between nirogacestat and placebo), QLQC30 Physical Functioning: 13.154
[2]; in vivo
  most frequent adverse reactions requiring a dose reduction or interruption: diarrhea, rash maculo-papular, hypophosphatemia, stomatitis, folliculitis, and fatigue
[2]; nirogacestat 150 mg twice daily over placebo, <0.001
  progression-free survival (PFS), hazard ratio (HR): 0.29
[2]; nirogacestat 150 mg twice daily versus placebo, p<0.001
  objective response rate (ORR): statistically significant improvements
[2]; nirogacestat 150 mg twice daily versus placebo, p<0.001 for each
  four different quality of life (QoL) assessments and patient-reported outcomes (PROs): statistically significant improvements
